The values that follow come from patent US20250380697A1, “ISOXAZOLINE DERIVATIVE COMPOUND AND INSECTICIDAL COMPOSITION COMPRISING SAME” (KYUNG NONG CORPORATION, priority 2022, published 2025).

Where only a bound is given, the exact number is not on record here.

Holding throughout (assay type): in vivo
One test has as its system Thrips tabaci Lindeman. In words: Pesticidal activity against Thrips tabaci Lindeman, spray method. The following applies: adults, counted 24 and 48 hours, time not given, read-out: mortality rate, Thrips tabaci Lindeman. The text has this:
A water-soaked filter paper (9.0 cm in diameter) was placed in an insect breeding dish (Lab Guide®) with a diameter of 9.0 cm and a height of 4.0 cm, and then parafilm (width 4.0 cm×height 4.0 cm) was placed thereon. Before being treated with a pesticide composition, 10 adult Thrips tabaci Lindeman were inoculated per petri dish using a No. 4 brush. In this case, Thrips tabaci Lindeman adults used were those collected in a place near the Andong National University (Korea) and bred for multiple generations. Then, the pesticide composition where the compound of Synthesis Example 2 was diluted (the solvent=distilled water+acetone 50,000 mg/L+Triton X-100 100 mg/L) was loaded into a 100 mL small sprayer, and sprayed 10-12 times at a distance of 30 cm and a height of 50 cm, and one cotyledons of soybean, which is a host plant, were added one at a time. Then, the Thrips tabaci Lindeman adults were stored under the conditions of 16 hours of light and 8 hours of darkness, 25±1° C., and relative humidity of 50-60%, and the number of live Thrips tabaci Lindeman adults was counted 24, and 48 hours after the inoculation. Thereafter, the larvae mortality rate was calculated in the same manner as in Test Example 1 above.

The next test concerns Phaedon brassicae. Description: Pesticidal activity against Phaedon brassicae, leaf-dipping method. The following applies: counted 24, 48, 72 hours, time not given, read-out: mortality rate, Phaedon brassicae. The method, then: Cabbage (Daiya) leaves were cut into pieces with a diameter of 5.8 cm, dipped in the pesticide composition where the compound of Synthesis Example 2 was diluted (the solvent=distilled water+acetone 50,000 mg/L+Triton X-100 100 mg/L) for 30 seconds, and sufficiently shade-dried. Then, the shade-dried cabbage leaves were is placed in a petri dish (8.8 cm in diameter) covered with filter paper and repeatedly inoculated 3-5 times with the larvae of Phaedon brassicae, 10 larvae per inoculation. In particular, the Phaedon brassicae larvae used were those which were bred in the Andong National University (Korea) for multiple generations.
After the inoculation, the Phaedon brassicae larvae were stored under the conditions of 16 hours of light and 8 hours of dark, 25±1° C. and 50-60% relative humidity, and the number of live Phaedon brassicae larvae was counted 24, 48, and 72 hours after the inoculation. Thereafter, the larvae mortality rate was calculated in the same manner as in Test Example 1 above.

In test [1] the test system is Frankliniella occidentalis. Description: Pesticidal activity against Frankliniella occidentalis, spray method. As to conditions: 48 h; for mortality at 100 ppm: read-out: mortality rate against Frankliniella occidentalis. From the text:
A water-soaked filter paper (9.0 cm in diameter) was placed in an insect breeding dish (Lab Guide®) with a diameter of 9.0 cm and a height of 4.0 cm, and then parafilm (width 4.0 cm×height 4.0 cm) was placed thereon. Before treating with a pesticide composition, 10 adult Frankliniella occidentalis were inoculated per petri dish using a No. 4 brush. In this case, Frankliniella occidentalis adults used were those purchased from the Bio Utilization Institute (Andong, Korea). Then, each of the pesticide compositions prepared in Examples (a diluted solution in which each of the compounds of Synthesis Examples (concentration: 100 ppm) was diluted; the solvent=distilled water+acetone 50,000 mg/L+Triton X-100 100 mg/L) was loaded into a 100 mL small sprayer, and sprayed 10-12 times at a distance of 30 cm and a height of 50 cm, and one cotyledons of soybean, which is a host plant, were added one at a time. Then, the Frankliniella occidentalis adults were stored under the conditions of 16 hours of light and 8 hours of darkness, 25±1° C., and relative humidity of 50-60%, and the number of live Frankliniella occidentalis adults was counted 48 hours after the inoculation. Thereafter, the larvae mortality rate was calculated in the same manner as in Test Example 1 above.

The next test relates to Plutella xylostella. Description: Pesticidal activity against Plutella xylostella, leaf-dipping method. The following applies: 48 h, read-out: larvae mortality rate against Plutella xylostella. The procedure: Cabbage (Daiya) leaves were cut into pieces with a diameter of 5.8 cm, dipped in each of the pesticide compositions prepared in Examples (a 5% acetone solution in which each of the compounds of Synthesis Examples (concentration: 100 ppm) was diluted) for 30 seconds, and sufficiently shade-dried. Then, the shade-dried cabbage leaves were placed in a petri dish (8.8 cm in diameter) covered with a filter paper and repeatedly inoculated 3 times with third instar larvae of Plutella xylostella, 10 larvae per inoculation. In particular, Plutella xylostella larvae used were those which were collected in a place near Gyeongju (Korea) in 2000 and bred in a breeding room for multiple generations. Then, the Plutella xylostella larvae were stored under the conditions of 16 hours of light and 8 hours of dark, 25±1° C., and relative humidity of 50-60%, and the number of live Plutella xylostella larvae was counted 48 hours after the inoculation. Thereafter, the larvae mortality rate was calculated by correcting the density after treatment based on the density before treatment, as shown in Equation 1 and Equation 2 below, and converting the same into the corrected mortality rate for untreated (Reference: A method of computing the effectiveness of an insecticide. J. Econ. Entomol. 18:265˜267. Abbott, 1925).

The test system of the next test is Spodoptera litura. In words: Pesticidal activity against Spodoptera litura, leaf-dipping method. The following applies: 48 h, read-out: mortality rate against Spodoptera litura. The method, then: Cabbage (Daiya) leaves were cut into pieces with a diameter of 5.8 cm, dipped in each of the pesticide compositions prepared in Examples (a 5% acetone solution in which each of the compounds of Synthesis Examples (concentration: 100 ppm) was diluted) for 30 seconds, and sufficiently shade-dried. Then, the shade-dried cabbage leaves were placed in a petri dish (8.8 cm in diameter) covered with a filter paper and repeatedly inoculated 3 times with the second instar larvae of Spodoptera litura, 10 larvae per inoculation. In this case, Spodoptera litura larvae used were those which were purchased from the Bio Utilization Institute (Andong, Korea). Then, the Spodoptera litura larvae were stored under the conditions of 16 hours of light and 8 hours of dark, 25±1° C., and relative humidity of 50-60%, and the number of live Spodoptera litura larvae was counted 48 hours after the inoculation. Thereafter, the larvae mortality rate was calculated in the same manner as in Test Example 1 above.

Where [2] appears, read: read-out: mortality rate, Frankliniella occidentalis.

Broadly, the mortality is the percentage killed. In the case of `CCN1OC[C@@H](NC(=O)c2ccc(C3=NO[C@@](c4cc(Cl)c(F)c(Cl)c4)(C(F)(F)F)C3)cc2C)C1=O` [Comparative Example 3, isocycloseram], the mortality at 1 ppm in the test on Thrips tabaci Lindeman (1 ppm) was 66%; with Phaedon brassicae (1 ppm), 100%. For the same molecule, the results for the mortality at 3 ppm in the test on Thrips tabaci Lindeman (3 ppm) and with Phaedon brassicae (3 ppm) were 76% and 100%, respectively. For the same molecule, the figures for the mortality at 10 ppm (with Thrips tabaci Lindeman (10 ppm); with Phaedon brassicae (10 ppm); in test [1] (setting [2])) were 90%, 100% and 100%, respectively. The mortality at 5 ppm in test [1] (setting [2]) was found to be 100%.

On to `Cc1cc(C2=NOC(c3cc(Cl)cc(C(F)(F)F)c3)(C(F)(F)F)C2)ccc1C(=O)NC(=O)c1ccno1` (centres unmarked) [Synthesis Example 83], for which the mortality at 100 ppm (in the test with Plutella xylostella; in the test with Spodoptera litura; in test [1]) was at least 80% in each case.

As for `Cc1cc(C2=NOC(c3cc(Cl)cc(C(F)(F)F)c3)(C(F)(F)F)C2)ccc1C(=O)NC(=O)c1cc(C2CC2)on1` (centres unmarked) [Synthesis Example 84], the mortality at 100 ppm (with Plutella xylostella; in the test with Spodoptera litura; in test [1]) was at least 80% each time.

On to `Cc1cc(C2=NOC(c3cc(Cl)cc(C(F)(F)F)c3)(C(F)(F)F)C2)ccc1C(=O)NC(=O)C1CCCO1` (centres unmarked) [Synthesis Example 85], for which the mortality at 100 ppm (with Plutella xylostella; in the test with Spodoptera litura; in test [1]) was at least 80% throughout.
